Laboratory results reported in patent US5159081A, “Intermediates of peripherally selective N-carbonyl-3,4,4-trisubstituted piperidine opioid antagonists” (Eli Lilly and Company, priority 1991, dated 1992).
Where a name gives a salt, the structure may show the parent alone. Read-outs that look alike come from different tables or passages of the source.

Legend:
opioid receptor = molecular target: T1, opioid receptor (Mus musculus, UniProt P42866); experiment: in vivo; set-up: species or system CF-1 male mice; conditions: sc, mouse writhing test, s.c. 20 min before acetic acid, read-out: AD50 (the source's name)
T1 construct: Five CF-1 male mice (Charles River, Portage, MI); from tissue; host or cells: living CF-1 male mice (whole animal, endogenous receptor)

[1] = molecular target: peripheral opioid receptors (Mus musculus, UniProt P42866); experiment: mouse diarrhea test: precipitated diarrhea in morphine-maintained mice (peripheral opioid activity); assay type: in vivo; conditions: mouse diarrhea test, morphine-maintained mice, subcutaneous or oral, 30 min observation
[2] = tested on: peripheral opioid receptors; experiment: as above; assay type: in vivo; conditions: AD50 mouse writhing / ED50 mouse diarrhea; higher = greater relative peripheral antagonism
mu receptor = molecular target: T2, mu receptor (Rattus norvegicus, UniProt P33535); experiment: Naloxone [3H] opioid receptor binding assay (mu receptor); set-up: species or system rat (male Sprague Dawley); conditions: 20 min; for Ki: rat whole brain minus cerebellum, pH 7.4, 37° C., read-out: Ki
T2 construct: The brain tissue, rat whole brain minus cerebellum for mu was homogenized; from tissue; host or cells: brain minus cerebellum of male Sprague Dawley rats, homogenate fraction

[3] = dose of antagonist that reduced inhibition of writhing by 1.25 mg/kg morphine sulfate to 50%
[4] = pH 7.4, read-out: % displacement at 100 nM
[5] = pH 7.4, 10 nM test compound, [3H]naloxone 0.5 nM, […], read-out: % displacement at 10 nM
[6] = pH 7.4, 10 nM test compound, [3H]naloxone 0.5 nM, mu receptor, read-out: % displacement at 10 nM
[7] = pH 7.4, 100 nM test compound, [3H]naloxone 0.5 nM, mu receptor, read-out: % displacement at 100 nM
[8] = pH 7.4, read-out: % displacement at 10 nM

T2 sequence (P33535 whole entry): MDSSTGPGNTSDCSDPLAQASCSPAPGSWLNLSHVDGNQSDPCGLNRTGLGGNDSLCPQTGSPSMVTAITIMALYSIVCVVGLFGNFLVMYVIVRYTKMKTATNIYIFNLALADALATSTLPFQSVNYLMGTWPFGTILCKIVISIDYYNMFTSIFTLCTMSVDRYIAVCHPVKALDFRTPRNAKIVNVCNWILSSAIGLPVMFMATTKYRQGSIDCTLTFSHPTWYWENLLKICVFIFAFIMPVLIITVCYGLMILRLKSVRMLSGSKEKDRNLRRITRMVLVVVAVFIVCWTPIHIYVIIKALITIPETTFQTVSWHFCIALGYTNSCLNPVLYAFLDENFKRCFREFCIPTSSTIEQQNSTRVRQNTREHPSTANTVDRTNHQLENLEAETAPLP
Sequence of peripheral opioid receptors (Mus musculus, UniProt P42866) (P42866 whole entry): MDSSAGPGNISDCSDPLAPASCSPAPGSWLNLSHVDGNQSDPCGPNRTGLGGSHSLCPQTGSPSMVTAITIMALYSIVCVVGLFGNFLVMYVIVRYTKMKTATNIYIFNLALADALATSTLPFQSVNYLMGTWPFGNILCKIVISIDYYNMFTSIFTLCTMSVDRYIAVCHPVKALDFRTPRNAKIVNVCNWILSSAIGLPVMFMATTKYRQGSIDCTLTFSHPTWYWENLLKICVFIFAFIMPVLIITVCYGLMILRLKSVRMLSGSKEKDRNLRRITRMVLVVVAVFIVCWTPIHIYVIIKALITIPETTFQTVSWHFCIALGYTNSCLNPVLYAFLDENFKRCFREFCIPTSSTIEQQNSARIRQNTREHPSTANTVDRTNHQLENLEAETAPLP
T1 sequence (P42866 whole entry): as above

## CC(C)C(=O)NCCCC(=O)NC(CCCNC(=N)N[N+](=O)[O-])C(=O)NC(CCN1CC[C@@](C)(c2cccc(O)c2)[C@@H](C)C1)c1ccccc1 (single isomer, unassigned; (-)) [Example 9, (-)-N-(1-phenyl-3-(trans-4-(3-hydroxyphenyl)-3,4-dimethyl-1-piperidinyl)propyl)-2-((1-oxo-4-(2-methyl-1-oxopropyl)amino)butyl)amino-5-((imino(nitroamino)-methyl)amino)pentanamide]
Opioid receptor; [3]
  ED50: > 1.25 mg/kg
[1]
  ED50: 0.25 mg/kg
[2]
  Ratio (ratio of AD50 to ED50): > 5
Mu receptor; [4]
  inhibition at 0.1 µM: 100%
Mu receptor; [5]
  inhibition at 0.01 µM: 92%
Mu receptor; […], [3H]naloxone 0.5 nM
  Ki: 1.33 nM

## COC1CCC(OC(=O)CCCC(=O)N[C@@H](CC2CCCCC2)CN2CC[C@](C)(c3cccc(O)c3)[C@H](C)C2)CC1 (some centres unmarked) [Example 69]
Opioid receptor; […]
  ED50: > 40 mg/kg
[1]; 0.5 h, read-out: ED50
  ED50: 0.03 mg/kg
[2]
  Ratio (ratio of AD50 to ED50): > 1333
Mu receptor; [6]
  inhibition at 0.01 µM: 37%
Mu receptor; [7]
  inhibition at 0.1 µM: 83%

## CC(C)CCN(CCN1CC[C@@](C)(c2cccc(O)c2)[C@@H](C)C1)C(=O)CCC(=O)O (relative stereo) [Example 28, 4-(3-methylbutyl-(2-(trans-4-(3-hydroxyphenyl)-3,4-dimethyl-1-piperidinyl)ethyl)amino)-4-oxobutanoic acid monohydrate]
Opioid receptor; [3]
  ED50: > 1.25 mg/kg
[1]; 0.5 h, read-out: ED50
  ED50: 0.1 mg/kg
[2]
  Ratio (ratio of AD50 to ED50): > 12
Mu receptor; [6]
  inhibition at 0.01 µM: 67%
Mu receptor; [7]
  inhibition at 0.1 µM: 100%

## CCOC(=O)CC(=O)N[C@H](Cc1ccccc1)CN1CC[C@@](C)(c2cccc(O)c2)[C@@H](C)C1 [Example 10, Ethyl trans-(3R,4R,R)-3-((2-(4-(3-hydroxyphenyl)-3,4-dimethyl-1-piperidinyl)-1-(D-(phenylmethyl)ethyl)amino))-3-oxopropionate hydrochloride]
Opioid receptor; […]
  ED50: 9.3 mg/kg
[1]
  ED50: 0.12 mg/kg
[2]
  Ratio (ratio of AD50 to ED50): 78
Mu receptor; [8]
  inhibition at 0.01 µM: 61%
Mu receptor; [4]
  inhibition at 0.1 µM: 94%
Mu receptor; […], [3H]naloxone 0.5 nM
  Ki: 1.46 nM

## CC1CN(C[C@H](CC2CCCCC2)NC(=O)CCCC(=O)O)CCC1(C)c1cccc(O)c1 (single isomer, unassigned; (+)) [Example 16]
Opioid receptor; […]
  ED50: > 20 mg/kg
[1]
  ED50: 0.12 mg/kg
[2]
  Ratio (ratio of AD50 to ED50): > 166
Mu receptor; [8]
  inhibition at 0.01 µM: 97%
Mu receptor; [4]
  inhibition at 0.1 µM: 100%
Mu receptor; […], [3H]naloxone 0.5 nM
  Ki: 0.96 nM

## C[C@H]1CN(C[C@@H](CC2CCCCC2)NC(=O)CCCC(=O)O)CC[C@@]1(C)c1cccc(O)c1 [Example 46D]
Opioid receptor; […]
  ED50: 6.5 mg/kg
[1]
  ED50: 0.09 mg/kg
[2]
  Ratio (ratio of AD50 to ED50): 72
Mu receptor; [8]
  inhibition at 0.01 µM: 48%
Mu receptor; [4]
  inhibition at 0.1 µM: 84%

## CC(C)COC(=O)CCC(=O)N(CCN1CC[C@@](C)(c2cccc(O)c2)[C@@H](C)C1)C1CCCCC1 (relative stereo) [Example 72]
Opioid receptor; […]
  ED50: 5.5 mg/kg
[1]; 0.5 h, read-out: ED50
  ED50: 0.017 mg/kg
[2]
  Ratio (ratio of AD50 to ED50): 324
Mu receptor; [6]
  inhibition at 0.01 µM: 73%
Mu receptor; [7]
  inhibition at 0.1 µM: 96%

## COC(=O)CCCC(=O)N[C@@H](CC1CCCCC1)CN1CC[C@](C)(c2cccc(O)c2)[C@H](C)C1 [Example 49]
Opioid receptor; […]
  ED50: 9.9 mg/kg
[1]
  ED50: > 10 mg/kg
Mu receptor; [8]
  inhibition at 0.01 µM: 83%
Mu receptor; [4]
  inhibition at 0.1 µM: 97%
Mu receptor; […], [3H]naloxone 0.5 nM
  Ki: 8.19 nM

## C[C@H]1CN(CCN(C(=O)CCC(N)=O)C2CCCCC2)CC[C@@]1(C)c1cccc(O)c1 (relative stereo) [Example 35, N-Cyclohexyl-N-(2-(trans-4-(3-hydroxyphenyl)-3,4-dimethyl-1-piperidinyl)ethyl)butanediamide monohydrochloride]
Opioid receptor; [3]
  ED50: > 1.25 mg/kg
[2]
  Ratio (ratio of AD50 to ED50): > 3
Mu receptor; [8]
  inhibition at 0.01 µM: 80%
Mu receptor; [4]
  inhibition at 0.1 µM: 99%
Mu receptor; […], [3H]naloxone 0.5 nM
  Ki: 2.15 nM

## CCOC(=O)CCCC(=O)N(CCCN1CC[C@@](C)(c2cccc(O)c2)[C@@H](C)C1)C1CCCCC1 (relative stereo) [Example 33, 5-(Cyclohexyl-(3-(trans-4-(3-hydroxyphenyl)-3,4-dimethyl-1-piperidinyl)propyl)amino)-5-oxopentanoic acid ethyl ester monohydrochloride]
Opioid receptor; […]
  ED50: 3.67 mg/kg
[2]
  Ratio (ratio of AD50 to ED50): 122
Mu receptor; [4]
  inhibition at 0.1 µM: 99%
Mu receptor; [5]
  inhibition at 0.01 µM: 83%
Mu receptor; […], [3H]naloxone 0.5 nM
  Ki: 0.26 nM
